According to US6218393A, “Anthranilic acid derivatives as multi drug resistance modulators” (priority 1997, dated 2001):

What was measured:
AR 1.0 cells [1] = test: Potentiation of doxorubicin toxicity: proliferation assay (sulphorhodamine B); type: cell-based, mouse
Description: (a) Selected compounds of formula (I) were examined for their ability to potentiate the toxicity of doxorubicin in AR 1.0 cells.

AR 1.0 cells [2] = test: Drug accumulation assay: daunorubicin accumulation in AR 1.0 cells; type: cell-based; settings: Mus musculus, 100% = accumulation with verapamil 100 μM, 1 hr, 37° C.
Summary of the method: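 Daunorubicin accumulation was measured in cells plated 48 h beforehand. These were AR 1.0 cells, an MDR-resistant derivative of mouse EMT6 mammary carcinoma, cultured at 37 °C in 5% CO2 in RPMI 1640 plus 10% foetal calf serum and 2 mM glutamine.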

AR 1.0 cells [3] = test: Potentiation index with doxorubicin titration; type: cell-based, mouse; settings: for Potentiation Index at RMA concentration 30 nM: Table C1, RMA 30 nM; for Potentiation Index at RMA concentration 50 nM: Table C1, RMA 50 nM; for Potentiation Index at RMA concentration 100 nM: Table C1, RMA 100 nM; for Potentiation Index at RMA concentration 10 nM: Table C1, RMA 10 nM
Protocol: The EMT6 mouse mammary carcinoma cell line and the MDR resistant subline AR 1.0 were cultured in RPMI 1640 medium containing 10% foetal calf serum and 2 mM glutamine at 37° C. in 5% CO2. Cells were passaged between 1 in 200 and 1 in 2000 in the case of the parental cell line and between 1 in 20 and 1 in 200 in the case of the MDR resistant subline, after trypsinisation (0.25% trypsin, 0.2 gl^-1, EDTA). […]
(b) Cells were cultured for four days with a titration of doxorubicin (0.263 nM-17.24 μM) in the presence of a fixed concentration of each compound. Proliferation was quantified as described by Skehen et al, loc cit. The IC50 (concentration required to reduce proliferation to 50% of the untreated controls) for doxorubicin alone and with each compound were derived and used to calculate the potentiation index (PI): [formula]

[4] = Mus musculus, 96 h, compound alone, four day proliferation, read-out: Compound Toxicity (IC50)
[5] = with fixed doxorubicin 0.34 μm, four days, 5760 min, read-out: Toxicity with Cytotoxic Agent (IC50)

IC50 (AR 1.0 cells [2])	SMILES	IC50 (AR 1.0 cells [1]; [4])	IC50 (AR 1.0 cells [1]; [5])	Potentiation Index at RMA concentration 30 nM (AR 1.0 cells [3])	Potentiation Index at RMA concentration 50 nM (AR 1.0 cells [3])	Potentiation Index at RMA concentration 100 nM (AR 1.0 cells [3])	Potentiation Index at RMA concentration 10 nM (AR 1.0 cells [3])	toxicity of doxorubicin alone to AR 1.0 cells (AR 1.0 cells [1]; fixed concentration 0.34 μm)
1700 nM	COc1cc2c(cc1OC)CN(CCNC(=O)c1ccccc1NC(=O)c1ccc(N(C)C)cc1)CC2 [compound 9256]	40000 nM	300 nM	–	–	–	–	–
1200 nM	CCN(CC)c1ccc(C(=O)Nc2ccccc2C(=O)NCCN2CCc3cc(OC)c(OC)cc3C2)cc1 [compound 9310, 2-(4-Diethylamino-benzoylamino)-N-[2-(6,7-dimethoxy-3,4-dihydro-1H-isoquinolin-2-yl)-ethyl]-benzamide]	22000 nM	240 nM	–	–	–	–	–
1300 nM	COc1cc2c(cc1OC)CN(CCNC(=O)c1ccccc1NC(=O)c1ccc(C(C)(C)C)cc1)CC2 [compound 9334, 2-(4-tert-Butyl-benzoylamino)-N-[2-(6,7-dimethoxy-3,4-dihydro-1H-isoquinolin-2-yl)-ethyl]-benzamide]	8000 nM	50 nM	–	–	–	–	–
3000 nM	COc1cc2c(cc1OC)CN(CCNC(=O)c1ccccc1NC(=O)c1cnc3ccccc3n1)CC2 [compound 9347, Quinoxaline-2-carboxylic acid {2-[2-(6,7-dimethoxy-3,4-dihydro-1H-isoquinolin-2-yl)-ethylcarbamoyl]-phenyl}-amide]	35000 nM	600 nM	–	–	–	–	–
9000 nM	COc1cc2c(cc1OC)CN(CCNC(=O)c1ccccc1NC(=O)c1ccccc1)CC2 [compound 9351, 2-Benzoylamino-N-[2-(6,7-dimethoxy-3,4-dihydro-1H-isoquinolin-2-yl)-ethyl]-benzamide]	43000 nM	1300 nM	–	–	–	–	–
2000 nM	COc1cc2c(cc1OC)CN(CCNC(=O)c1ccccc1NC(=O)c1ccsc1)CC2 [compound 9365, Thiophene-3-carboxylic acid {2-[2-(6,7-dimethoxy-3,4-dihydro-1H-isoquinolin-2-yl)-ethylcarbamoyl]-phenyl}-amide]	42000 nM	800 nM	–	–	–	–	–
1000 nM	COc1cc2c(cc1OC)CN(CCNC(=O)c1ccccc1NC(=O)c1cc3ccccc3[nH]1)CC2 [compound 9367]	15000 nM	500 nM	–	–	–	–	–
900 nM	COc1cc2c(cc1OC)CN(CCNC(=O)c1ccccc1NC(=O)c1ccc(Br)cc1)CC2 [compound 9380, 2-(4-Bromo-benzoylamino)-N-[2-(6,7-dimethoxy-3,4-dihydro-1H-isoquinolin-2-yl)-ethyl]-benzamide]	40000 nM	500 nM	–	–	–	–	–
3000 nM	COc1cc2c(cc1OC)CN(CCNC(=O)c1ccccc1NC(=O)c1ccc([N+](=O)[O-])cc1)CC2 [compound 9381, 2-(4-Nitro-benzoylamino)-N-[2-(6,7-dimethoxy-3,4-dihydro-1H-isoquinolin-2-yl)-ethyl]-benzamide]	50000 nM	1500 nM	–	–	–	–	–
2000 nM	COc1cc2c(cc1OC)CN(CCNC(=O)c1ccccc1NC(=O)c1nccc3ccccc13)CC2 [compound 9383, Isoquinoline-1-carboxylic acid {2-[2-(6,7-dimethoxy-3,4-dihydro-1H-isoquinolin-2-yl)-ethylcarbamoyl]-phenyl}-amide]	40000 nM	–	–	–	–	–	–
1800 nM	COc1cc2c(cc1OC)CN(CCNC(=O)c1ccccc1NC(=O)c1cc3ccccc3cn1)CC2 [compound 9389, Isoquinoline-3-carboxylic acid {2-[2-(6,7-dimethoxy-3,4-dihydro-1H-isoquinolin-2-yl)-ethylcarbamoyl]-phenyl}-amide]	30000 nM	–	–	–	–	–	–
3200 nM	COc1cc2c(cc1OC)CN(CCNC(=O)c1cc(-c3ccccc3)ccc1NC(=O)c1ccc(C(C)C)cc1)CC2 [compound 9432, 2-(4-Isopropyl-benzoylamino)-N-[2-(6,7-dimethoxy-3,4-dihydro-1H-isoquinolin-2-yl)-ethyl]-5-phenyl-benzamide]	35000 nM	200 nM	–	–	–	–	–
1900 nM	COc1cc2c(cc1OC)CN(CCNC(=O)c1ccc(N)cc1NC(=O)c1ccc(C(C)C)cc1)CC2 [compound 9435, 2-(4-Isopropyl-benzoylamino)-N-[2-(6,7-dimethoxy-3,4-dihydro-1H-isoquinolin-2-yl)-ethyl]-4-amino-benzamide]	9000 nM	400 nM	–	–	–	–	–
500 nM	COc1cc2c(cc1OC)CN(CCc1ccc(NC(=O)c3ccccc3NC(=O)c3ccccn3)cc1)CC2 [compound 9472, Pyridine-2-carboxylic acid (2-{4-[2-(6,7-dimethoxy-3,4-dihydro-1H-isoquinolin-2-yl)-ethyl]-phenylcarbamoyl}-phenyl)-amide]	6500 nM	120 nM	–	–	–	–	–
540 nM	COc1cc2c(cc1OC)CN(CCc1ccc(NC(=O)c3ccccc3NC(=O)c3cccnc3)cc1)CC2 [compound 9482, N-(2-{4-[2-(6,7-Dimethoxy-3,4-dihydro-1H-isoquinolin-2-yl)-ethyl]-phenylcarbamoyl}-phenyl)-nicotinamide]	12000 nM	220 nM	–	–	–	–	–
1000 nM	COc1cc2c(cc1OC)CN(CCc1ccc(NC(=O)c3ccccc3NC(=O)c3ccsc3)cc1)CC2 [compound 9492, Thiophene-3-carboxylic acid (2-{4-[2-(6,7-dimethoxy-3,4-dihydro-1H-isoquinolin-2-yl)-ethyl]-phenylcarbamoyl}-phenyl)-amide]	3000 nM	20 nM	–	–	–	–	–
140 nM	COc1cc2c(cc1OC)CN(CCc1ccc(NC(=O)c3ccccc3NC(=O)c3ccccc3OC(C)=O)cc1)CC2 [compound 9534, Acetic acid 2-(2-{4-[2-(6,7-dimethoxy-3,4-dihydro-1H-isoquinolin-2-yl)-ethyl]-phenylcarbamoyl}-phenylcarbamoyl)-phenyl ester]	6600 nM	0.2 nM	–	–	–	–	–
1200 nM	COc1cc2c(cc1OC)CN(CCc1ccc(NC(=O)c3ccccc3NC(=O)c3cccc(OC(C)=O)c3)cc1)CC2 [compound 9540, Acetic acid 3-(2-{4-[2-(6,7-dimethoxy-3,4-dihydro-1H-isoquinolin-2-yl)-ethyl]-phenylcarbamoyl}-phenylcarbamoyl)-phenyl ester]	6200 nM	1000 nM	–	–	–	–	–
6420 nM	COc1cc2c(cc1OC)CN(CCCc1cccc(NC(=O)c3ccccc3NC(=O)c3cnc4ccccc4c3)c1)CC2 [compound 9660, Quinoline-3-carboxylic acid (2-{3-[3-(6,7-dimethoxy-31 4-dihydro-1H-isoquinolin-2-yi)-propyl]-phenyicarbamoyi}-phenyi)-atnide]	–	–	1.1	1.2	1.4	–	–
362 nM	COc1ccc(CN(C)Cc2ccc(NC(=O)c3ccccc3NC(=O)c3cccnc3)cc2)cc1OC(C)C [compound 9661, N-[2-(4-{[(3-Isopropoxy-4-methoxy-benzyl)-methyl-amino]-methyl}-phenylcarbamoyl)-phenyl]-nicotinamide]	–	–	38	71	195	1.2	–
175 nM	COc1ccc(CN(C)CCc2ccc(NC(=O)c3ccc(Cl)cc3NC(=O)c3cnc4ccccc4c3)cc2)cc1OC [compound 9663, Quinoline-3-carboxylic acid [5-chloro-2-(4-{2-[(3-4-dimethoxy-benzyl)-methyl-amino]-ethyl}-phenylcarbamoyl)-phenyl]-amide]	–	–	80	74	82	50	–
1680 nM	O=C(Nc1ccccc1C(=O)Nc1ccc(CCN2CCc3cc4c(cc3C2)OCO4)cc1)c1cnc2ccccc2c1 [compound 9664, Quinoline-3-carboxylic acid (2-{4-[2-(7,8-dihydro-5H-[1,3]dioxolo[4,5-g]isoquinolin-6-yl)-ethyl]-phenylcarbamoyl}-phenyl)-amide]	–	–	1.9	37	116	1	–
389 nM	CCOc1cc2c(cc1OCC)CN(CCc1ccc(NC(=O)c3ccccc3NC(=O)c3cnc4ccccc4c3)cc1)CC2 [compound 9665, Quinoline-3-carboxylic acid (2-{4-[2-(6,7-diethoxy-3,4-dihydro-1H-isoquinolin-2-yl)-ethyl]-phenylcarbamoyl}-phenyl)-amide]	–	–	7	28	50	1.4	–
–	COc1cccc2c1C(=O)c1c(O)c3c(c(O)c1C2=O)C[C@@](O)(C(=O)CO)C[C@@H]3O[C@H]1C[C@H](N)[C@H](O)[C@H](C)O1 [doxorubicin, reference compound]	–	–	–	–	–	–	non-toxic

SMILES	IC50 (AR 1.0 cells [2])	IC50 (AR 1.0 cells [1]; [4])	IC50 (AR 1.0 cells [1]; [5])	Potentiation Index at RMA concentration 30 nM (AR 1.0 cells [3])	Potentiation Index at RMA concentration 50 nM (AR 1.0 cells [3])	Potentiation Index at RMA concentration 100 nM (AR 1.0 cells [3])	Potentiation Index at RMA concentration 10 nM (AR 1.0 cells [3])	toxicity of doxorubicin alone to AR 1.0 cells (AR 1.0 cells [1]; fixed concentration 0.34 μm)
COc1cc2c(cc1OC)CN(CCNC(=O)c1ccccc1NC(=O)c1ccc3ccccc3n1)CC2 [compound 9385, Quinoline-2-carboxylic acid {2-[2-(6,7-dimethoxy-3,4-dihydro-1H-isoquinolin-2-yl)-ethylcarbamoyl]-phenyl}-amide]	1200 nM	40000 nM	–	–	–	–	–	–
